From patent US20210311061A1, “USE OF TROP-2 AS PREDICTIVE MARKER OF RESPONSE TO ANTI-TUMOR THERAPY BASED ON INHIBITORS OF CD9, AKT AND MOLECULES OF THE TETRASPANIN SIGNALLING NETWORK” (ONCOXX BIOTECH S.R.L., priority 2012, published 2021)
Each block holds one molecule with its values, some of them ahead of it.

Tests used:
[1] = tested on: Colo205 colon cancer cells; test: Xenografts in athymic nude mice, Colo205; conditions: 0.35 mg/mouse intraperitoneally every day, in vivo growth curves
Description: (§1) MTE 4-14 immortalized cell line transfected with Trop-2 (Alberti, Nutini et al. 1994), or Colo205 colon cancer cells, endogenously expressing Trop-2, were injected subcutaneously (4×10^6 cells/injection) into nude mice groups (8 weeks females, CD1-Foxn1 nu/nu mice (Charles River Laboratories, Calco, Lecco, Italy). MTE 4-14 cells transfected with Trop-2 were co-injected with Matrigel 1:3 vol/vol (growth factor reduced matrix, BD Biosciences, Franklin Lakes, N.J. USA). A stock solution of MK-2206 in DMSO was diluted at the time of use in apyrogenic saline solution, to a final concentration of 0.7 mg/ml, and the drug was administered intraperitoneally at a dose of 0.35 mg/mouse every day, starting from the time in which the tumors became palpable. Control group mice were treated with the vehicle alone. Mice were visually inspected every 5-7 days and the major and minor diameters of the experimental tumors were measured. The tumor volume was calculated using the formula for the volume of ellipsoid (Dxd2/2). MTE 4-14 cells transfected with the empty vector were not tumorigenic in this model. […]

[2] = tested on: MTE 4-14 cells transfected with Trop-2; test: Xenografts in athymic nude mice, MTE 4-14 transfected with Trop-2; conditions: MTE 4-14/Trop-2; 0.35 mg/mouse intraperitoneally every day; in vivo growth curves
Description: as §1

[3] = tested on: Akt; test: Western blot of Akt phosphorylation in MTE 4-14 transfectants with or without PMA; assay type: cell-based, murine
Description: Western blotting was performed as previously described (El Sewedy, Fornaro et al. 1998). In brief, cell lysates were analyzed by electrophoresis on denaturing polyacrylamide gel (SDS-PAGE) and transfered onto nitrocellulose filters. Filters were incubated with the relevant primary antibodies (Abcam, Cambridge, UK; Santa Cruz) in TBS with 5% non-fat dried milk. Hybridized filters were washed in TBS, 0.1% Tween-20. […] Signal intensity was quantified with NIH-image 1.62, using as reference a Kodak gray-scale standards power curve (www.kodak.com).

[4] = tested on: Trop-2; test: Precipitation of cholesterol from BRIJ lysate, precipitation of Trop-2; conditions: MTE4-14 cells transfected with Trop-2; Western blot, FIG. 3f
Description: Cells were also harvested by scraping and lysed in buffer with 1% BRIJ. The supernatant was mixed with either 1/10 (vol/vol) methanol (control) or 1/10 (vol/vol) 10% digitonin in methanol, and incubated on ice for 10 min. Cell membranes were recovered by centrifugation at 12,000 g for 15 min. The pellet was washed in cold acetone, resuspended in Laemmli buffer and analysed by Western blotting.

[5] = tested on: MTE 4-14 cells transfected with the empty vector; test: In vitro cell-growth assay, MTE 4-14 cells transfected with the empty vector; assay type: cell-based, murine; conditions: siRNA transfection, growth curves, FIG. 7d
Description: (§2) MTE 4-14 cells transfected with the empty vector or with Trop-2 were seeded at 1.5-3×10^3 cells/well in 96-well plates (five replica wells per data point). Cell numbers were quantified by the MTT colorimetric assay (Roche Molecular Biochemicals, Mannheim, Germany) or by staining with crystal violet. Cell numbers were normalised against a reference standard curve of serially diluted cell samples.
(§3) Cells were treated with 50-100-200-400 nM A6730_SIGMA (Sigma Technical Company, St Louis, Mo. 63178-9916) or with 400 nM MK-2206 (Selleck Chemicals, Houston, Tex.) to inhibit Akt. Stock solutions were prepared in DMSO and diluited in ethanol or water, with the final concentration of DMSO and ethanol never exceeding 0.1% and 1% respectively. Control cells received vehicle alone. A second treatment was performed 24 hours after seeding.
(§4) The corresponding constructs were transiently transfected into MTE 4-14 cells, and their effect on cell proliferation was evaluated. The levels of transcripts after silencing were quantified by real-time RT-PCR. siRNAs directed against irrelevant targets were used as negative controls, chosen after thorough verification of the absence of spurious effects on cell growth. […]

[6] = tested on: MTE 4-14 cells transfected with Trop-2; test: In vitro cell-growth assay, MTE 4-14 cells transfected with Trop-2; assay type: cell-based, murine; conditions: siRNA transfection, growth curves, FIG. 7d
Description: as §2, §3, §4

[7] = tested on: Trop-2; test: Depletion of cholesterol from cell membranes, release of Trop-2; assay type: cell-based; conditions: MTE4-14 cells transfected with Trop-2; 10 mM, 37° C., 45 min; Western blot, FIG. 3f
Description: To deplete cell membranes of cholesterol, intact cells were washed three times in PBS to remove serum and incubated in DMEM with 10 mM methyl-β-cyclodextrin at 37° C. for 45 min. Control cells were processed in parallel in the absence of methyl-β-cyclodextrin. Samples were centrifuged at 2000 g to remove cells and cell debris. Proteins in the supernatant were precipitated in trichloroacetic acid and analysed by Western blotting.

[8] = target: T1, Trop-2 (human, wild-type) (human, UniProt P09758 27-323); test: confocal microscopy of intact cells, co-capping and cell footprints, MTE 4-14 cells transfected with Trop-2
T1 construct: whole, on cells; Full-length protein expressed in cells (MTE 4-14 transfectants, MCF7); also called T2
T1 sequence (looked up): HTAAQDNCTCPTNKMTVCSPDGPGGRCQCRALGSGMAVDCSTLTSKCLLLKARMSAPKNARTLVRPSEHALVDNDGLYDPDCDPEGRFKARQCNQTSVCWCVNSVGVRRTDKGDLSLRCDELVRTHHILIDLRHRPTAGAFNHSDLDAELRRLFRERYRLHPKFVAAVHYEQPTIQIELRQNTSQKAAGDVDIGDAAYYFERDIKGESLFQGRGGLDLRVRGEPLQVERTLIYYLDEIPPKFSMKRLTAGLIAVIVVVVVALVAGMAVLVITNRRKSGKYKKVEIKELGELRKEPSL
Source text: FIG. 3. Interaction of Trop-2 and PKCα with tetraspanin molecules and CD9. (a-d) Confocal microscopy analysis of intact cell membranes (a), membrane areas showing co-capping (b), footprints of cell membranes (c, d) of MTE 4-14 cells transfected with Trop-2 (a-c, d top) or with the empty vector (d bottom) stained simultaneously with anti-Trop-2 and anti-CD9 (member of tetraspanin webs) or anti-caveolin (negative control) (a-c) or anti-CD9 and anti PKCα (d) conjugated with fluorescent molecules. Areas of colocalization are indicated by arrowheads. (e) Co-immunoprecipitation (IP) of Trop-2, PKCα, CD9 and tetraspanins. Immunoprecipitation was performed using primary antibodies against murine CD9, CD81 and CD151 (MTE 4-14cells) or human CD9, CD82 and CD151 (MCF7 cells); the presence of Trop-2 and PKCα in immunoprecipites was detected by Western blot. IP with anti-Trop-2: positive control. (f) Trop-2/cholesterol association. Release of Trop-2 in the culture medium after treatment with methyl-β-cyclodextrin (MβCD) (left). Precipitation of Trop-2 with digitonin from BRIJ lysate (right). The treatments were performed on MTE4-14 cells transfected with Trop-2, and the presence of Trop-2 in the soluble and insoluble fractions was assessed by Western blot.

Molecule: NC1(c2ccc(-c3nc4ccn5c(=O)[nH]nc5c4cc3-c3ccccc3)cc2)CCC1 [MK-2206]
Difference between control and treated tumors, P (two-way ANOVA) [1]: < 0.0001 | Difference between control and treated tumors, P (two-way ANOVA) [2]: < 0.0001

Molecule: CCCCCCCCCCCCCC(=O)O[C@@H]1[C@@H](C)[C@@]2(O)[C@@H](C=C(CO)C[C@]3(O)C(=O)C(C)=C[C@@H]23)[C@@H]2C(C)(C)[C@]12OC(C)=O [PMA]
Akt-S473 phosphorylation ([3]; MTE 4-14 cells transfected with Trop-2, FIG. 6b): reduction, further increased by PMA | Akt-T308 phosphorylation levels ([3]; MTE 4-14 transfectants, FIG. 6b): no effect

Molecule: C[C@@H]1CC[C@@]2(OC1)O[C@H]1[C@@H](O)[C@H]3[C@@H]4CC[C@H]5C[C@@H](O[C@@H]6O[C@H](CO)[C@H](O[C@@H]7O[C@H](CO)[C@@H](O)[C@H](O[C@@H]8OC[C@@H](O)[C@H](O)[C@H]8O)[C@H]7O[C@@H]7O[C@H](CO)[C@H](O)[C@H](O[C@@H]8O[C@H](CO)[C@@H](O)[C@H](O)[C@H]8O)[C@H]7O)[C@H](O)[C@H]6O)[C@H](O)C[C@]5(C)[C@H]4CC[C@]3(C)[C@H]1[C@@H]2C [digitonin]
precipitation of Trop-2 from lysates of cell membranes in BRIJ [4]: precipitation of Trop-2

Molecule: anti-CD9 siRNA: anti-CD9 siRNA with target sense sequence 5′ GGTAGCAAGT GCATCAAAT 3′, expressed as hairpin RNA from pSUPER vector (sense GGTAGCAAGTGCATCAAAT; antisense ATTTGATGCACTTGCTACC; listed as Mus musculus)
proliferation of Trop-2-negative cells [5]: essentially no impact | proliferation of MTE 4-14 cells expressing Trop-2 [6]: striking reduction

Molecule: methyl-β-cyclodextrin
release of Trop-2 in the culture medium [7]: induce the release of Trop-2 in the culture medium

binding result [8]: no binding
B1: caveolin (other, murine, UniProt P49817 2-178, looked up)
chain: SGGKYVDSEGHLYTVPIREQGNIYKPNNKAMADEVTEKQVYDAHTKEIDLVNRDPKHLNDDVVKIDFEDVIAEPEGTHSFDGIWKASFTTFTVTKYWFYRLLSTIFGIPMALIWGIYFAILSFLHIWAVVPCIKSFLIEIQCISRVYSIYVHTFCDPLFEAIGKIFSNIRISTQKEI
notes: Lipid-raft marker used as negative control in the confocal, co-capping and footprint analyses; also called caveolin-1
